According to PMC4436800 (Frontiers in Neuroscience, 2015):

Columns and labels:
[1] = target: T1, Rhopr5HTR2b (R. prolixus serotonin type 2b receptor) (Rhodnius prolixus, UniProt A0A0H4TRR1); assay: aequorin luminescence, inhibition of […] serotonin response by […] antagonist; type: cell-based
T1 construct: gene 5HT-R2; complete open reading frame (Genbank KP325472) in pcDNA3.1, transiently expressed in CHOK1-aeq cells
T1 sequence (A0A0H4TRR1 1-703): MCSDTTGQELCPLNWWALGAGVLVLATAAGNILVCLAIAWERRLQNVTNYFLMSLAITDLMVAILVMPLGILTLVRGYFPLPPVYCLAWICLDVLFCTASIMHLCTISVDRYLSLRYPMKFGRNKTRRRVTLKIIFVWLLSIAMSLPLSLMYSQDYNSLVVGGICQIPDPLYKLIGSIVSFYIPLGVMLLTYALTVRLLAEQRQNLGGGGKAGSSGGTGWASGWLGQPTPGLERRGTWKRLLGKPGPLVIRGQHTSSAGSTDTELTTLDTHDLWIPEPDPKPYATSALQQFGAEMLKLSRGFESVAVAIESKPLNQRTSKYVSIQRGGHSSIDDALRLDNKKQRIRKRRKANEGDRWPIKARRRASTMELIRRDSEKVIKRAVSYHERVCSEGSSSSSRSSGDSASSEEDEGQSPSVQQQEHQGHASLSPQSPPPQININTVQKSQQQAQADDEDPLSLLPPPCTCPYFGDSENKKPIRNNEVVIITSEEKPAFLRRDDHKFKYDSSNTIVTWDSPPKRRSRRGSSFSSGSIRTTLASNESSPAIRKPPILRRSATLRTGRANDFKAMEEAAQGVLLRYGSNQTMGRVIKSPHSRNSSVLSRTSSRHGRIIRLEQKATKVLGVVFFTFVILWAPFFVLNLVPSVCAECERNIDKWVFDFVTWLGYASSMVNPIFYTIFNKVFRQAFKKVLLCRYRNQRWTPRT

[2] = target: T1, Rhopr5HTR2b (R. prolixus serotonin type 2b receptor); assay: aequorin calcium luminescence assay, agonist dose-response in transfected CHOK1-aeq cells; type: cell-based

Compound	% inhibition at 10 μM (range for all five antagonists) [1]	EC50 [2]
CN1CCC(=C2c3ccccc3C=Cc3ccccc32)CC1 [cyproheptadine]	~ 70–50 % inhibition at 10 μM (range for all five antagonists)	–
CC(C)NCC(O)COc1cccc2ccccc12 (stereo not drawn) [propranolol]	~ 70–50 % inhibition at 10 μM (range for all five antagonists)	–
O=C(c1ccc(F)cc1)C1CCN(CCn2c(=O)[nH]c3ccccc3c2=O)CC1 [ketanserin]	~ 70–50 % inhibition at 10 μM (range for all five antagonists)	–
CC(N)Cc1c[nH]c2ccc(O)cc12 (stereo not drawn) [alpha-methyl serotonin]	–	3.2 µM
O=C(CCCN1CCC2(CC1)C(=O)NCN2c1ccccc1)c1ccc(F)cc1 [spiperone]	~ 70–50 % inhibition at 10 μM (range for all five antagonists)	–
CN1CCN2c3ccccc3Cc3ccccc3C2C1 (stereo not drawn) [mianserin]	~ 70–50 % inhibition at 10 μM (range for all five antagonists)	–
